{
  "source": "patent US20060188913A1",
  "about": "“Methods and products for enhancing immune responses using imidazoquinoline compounds” (University of Iowa Research Foundation, priority 2001, published 2006)",
  "key": {"[1]": {"molecular_target": "T1, hTLR7 (Homo sapiens, UniProt Q9NYK1)", "T1 construct": "plasmids (pcDNA3.1 constructs) coding for full length hTLR2, hTLR7, hTLR8 and hTLR9; expressed in transfected cells; host or cells: 293T cells", "T1 sequence (Q9NYK1 27-1049)": "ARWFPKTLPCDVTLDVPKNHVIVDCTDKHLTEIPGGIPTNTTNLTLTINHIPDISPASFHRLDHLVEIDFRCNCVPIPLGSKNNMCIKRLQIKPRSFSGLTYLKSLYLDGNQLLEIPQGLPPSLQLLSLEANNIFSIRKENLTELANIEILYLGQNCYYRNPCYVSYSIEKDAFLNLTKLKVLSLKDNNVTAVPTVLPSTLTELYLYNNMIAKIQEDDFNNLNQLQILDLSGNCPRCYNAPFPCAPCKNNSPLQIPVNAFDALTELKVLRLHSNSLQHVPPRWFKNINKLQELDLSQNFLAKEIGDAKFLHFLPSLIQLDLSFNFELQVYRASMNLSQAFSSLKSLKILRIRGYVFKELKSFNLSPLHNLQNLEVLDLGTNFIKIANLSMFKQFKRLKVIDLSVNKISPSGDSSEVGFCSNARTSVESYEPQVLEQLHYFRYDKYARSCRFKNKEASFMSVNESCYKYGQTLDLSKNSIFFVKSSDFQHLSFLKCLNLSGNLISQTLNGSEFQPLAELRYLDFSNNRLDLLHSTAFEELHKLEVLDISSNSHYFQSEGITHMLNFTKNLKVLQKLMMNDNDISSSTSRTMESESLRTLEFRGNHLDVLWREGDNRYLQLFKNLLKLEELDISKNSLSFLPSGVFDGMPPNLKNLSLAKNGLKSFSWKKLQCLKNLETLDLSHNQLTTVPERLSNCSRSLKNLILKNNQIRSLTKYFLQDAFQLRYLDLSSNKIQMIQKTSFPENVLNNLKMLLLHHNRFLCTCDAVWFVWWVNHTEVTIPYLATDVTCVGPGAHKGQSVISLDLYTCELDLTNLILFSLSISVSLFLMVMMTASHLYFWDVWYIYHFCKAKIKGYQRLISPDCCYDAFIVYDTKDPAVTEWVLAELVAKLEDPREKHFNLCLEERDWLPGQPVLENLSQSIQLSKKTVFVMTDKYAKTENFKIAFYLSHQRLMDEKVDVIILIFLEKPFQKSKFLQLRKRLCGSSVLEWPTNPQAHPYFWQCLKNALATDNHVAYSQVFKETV", "test": "IL-8 production in 293 fibroblasts transiently expressing hTLR7", "format": "cell-based", "details": "CpG-ODN 2 μM, LPS 100 ng/ml", "protocol": "(§1) The cloned human TLR7 and human TLR8 cDNA were cloned into the expression vector pCDNA3. 1 (−) from Invitrogen using the NotI site. Utilizing a “gain of function” assay, hTLR7 and hTLR8 expression vectors were transiently expressed in human 293 fibroblasts (ATCC, CRL-1573) using the calcium phosphate method. Activation was monitored by IL-8 production after stimulus with CpG-ODN (2006 or 1668, 2 μM) or LPS (100 ng/ml)."}, "[2]": {"molecular_target": "T2, hTLR8 (Homo sapiens, UniProt Q9NR97)", "T2 construct": "plasmids (pcDNA3.1 constructs) coding for full length hTLR2, hTLR7, hTLR8 and hTLR9; expressed in transfected cells; host or cells: 293T cells", "T2 sequence (Q9NR97 27-1041)": "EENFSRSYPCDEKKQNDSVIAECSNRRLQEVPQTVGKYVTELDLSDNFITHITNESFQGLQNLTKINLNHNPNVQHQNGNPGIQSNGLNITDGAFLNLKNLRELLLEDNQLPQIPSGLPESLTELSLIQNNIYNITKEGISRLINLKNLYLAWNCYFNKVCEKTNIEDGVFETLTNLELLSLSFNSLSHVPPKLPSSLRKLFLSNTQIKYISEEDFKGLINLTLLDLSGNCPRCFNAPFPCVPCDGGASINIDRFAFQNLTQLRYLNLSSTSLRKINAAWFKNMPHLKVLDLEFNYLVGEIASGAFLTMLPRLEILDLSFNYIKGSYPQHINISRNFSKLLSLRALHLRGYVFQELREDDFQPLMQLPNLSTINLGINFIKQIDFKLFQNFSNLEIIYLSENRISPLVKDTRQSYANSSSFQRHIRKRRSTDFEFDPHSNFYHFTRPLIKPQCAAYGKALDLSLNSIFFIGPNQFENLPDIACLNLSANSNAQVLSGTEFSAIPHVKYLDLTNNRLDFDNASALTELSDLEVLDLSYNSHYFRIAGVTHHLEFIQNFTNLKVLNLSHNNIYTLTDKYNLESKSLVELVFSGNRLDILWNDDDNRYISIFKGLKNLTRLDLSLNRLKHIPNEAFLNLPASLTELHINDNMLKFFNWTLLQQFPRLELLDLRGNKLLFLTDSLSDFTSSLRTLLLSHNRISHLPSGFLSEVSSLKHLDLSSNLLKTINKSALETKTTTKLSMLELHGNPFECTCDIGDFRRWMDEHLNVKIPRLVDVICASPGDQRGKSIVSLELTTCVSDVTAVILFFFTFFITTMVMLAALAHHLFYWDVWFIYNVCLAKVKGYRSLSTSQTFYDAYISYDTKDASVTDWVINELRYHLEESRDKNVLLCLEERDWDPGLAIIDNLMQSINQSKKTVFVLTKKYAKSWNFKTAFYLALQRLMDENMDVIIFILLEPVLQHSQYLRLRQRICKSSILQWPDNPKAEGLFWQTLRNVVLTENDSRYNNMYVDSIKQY", "test": "IL-8 production in 293 fibroblasts transiently expressing hTLR8", "format": "cell-based", "details": "CpG-ODN 2 μM, LPS 100 ng/ml", "protocol": "as §1"}},
  "data": [
    {"substance": "CpG ODN 2006", "values": [
      {"measurement": "activation monitored by IL-8 production", "setting": "[1]", "result": "None of the stimuli used activated"},
      {"measurement": "activation monitored by IL-8 production", "setting": "[2]", "result": "None of the stimuli used activated"}
    ]}
  ]
}
